Experimental data as given in US20130184222A1, “[…] ACTIVE COMPOSITIONS AND THEIR METHODS OF USE” (AGIOS PHARMACEUTICALS, INC, priority 2010, published 2013).
pIC50: −log10 of the molar value.

Experiments:
IDH1 R132H = IDH1 R132H (Homo sapiens, UniProt O75874, R132H); assay: In vitro assay for IDH1 R132H inhibitors (NADPH/aKG, resazurin detection); assay type: biochemical; conditions: Table 4B; 0.2 μg/ml IDH1 R132H, 50 minutes at room temperature; read-out: IC50, IDH1 R132H Inhibition
Summary of the method: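 Reaction ran 50 min at room temperature in Tris pH 7.5 buffer with 150 mM NaCl, 10 mM MgCl2 and 0.03% BSA. Mix concentrations were 0.2 μg/ml mutant enzyme, 8 uM NADPH and 2 mM aKG. Detection added 30 μM resazurin, with resorufin fluorescence (Ex544/Em590) measured 5 min later.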

HT1080 cells = assay: Cellular assay: inhibition of 2-HG production in HT1080 cells (LC-MS, 48 hours); assay type: cell-based; conditions: Homo sapiens, HT-1080, 2-HG in media by LC-MS
Method: (§1) Cells (HT1080 or U87MG) were grown in T125 flasks in DMEM containing 10% FBS, 1× penicillin/streptomycin and 500 ug/mL G418 (present in U87MG cells only). They were harvested by trypsin and seeded into 96 well white bottom plates at a density of 5000 cell/well in 100 ul/well in DMEM with 10% FBS. No cells were placed in columns 1 and 12. Cells were incubated overnight at 37° C. in 5% CO2. The next day test compounds were made up at 2× the final concentration and 100 ul were added to each cell well. The final concentration of DMSO was 0.2% and the DMSO control wells were plated in row G. The plates were then placed in the incubator for 48 hours. At 48 hours, 100 ul of media was removed from each well and analyzed by LC-MS for 2-HG concentrations. The cell plate was placed back in the incubator for another 24 hours. At 72 hours post compound addition, 10 mL/plate of Promega Cell Titer Glo reagent was thawed and mixed. The cell plate was removed from the incubator and allowed to equilibrate to room temperature. Then 100 ul of Promega Cell Titer Glo reagent was added to each well of media. The cell plate was then placed on an orbital shaker for 10 minutes and then allowed to sit at room temperature for 20 minutes. The plate was then read for luminescence with an integration time of 500 ms.

U87MG cells = assay: Cellular assay: inhibition of 2-HG production in U87MG cells (LC-MS, 48 hours); assay type: cell-based; conditions: Homo sapiens, U-87 MG, 2-HG in media by LC-MS
Method: as §1

Chain of IDH1 R132H (O75874 whole entry R132H): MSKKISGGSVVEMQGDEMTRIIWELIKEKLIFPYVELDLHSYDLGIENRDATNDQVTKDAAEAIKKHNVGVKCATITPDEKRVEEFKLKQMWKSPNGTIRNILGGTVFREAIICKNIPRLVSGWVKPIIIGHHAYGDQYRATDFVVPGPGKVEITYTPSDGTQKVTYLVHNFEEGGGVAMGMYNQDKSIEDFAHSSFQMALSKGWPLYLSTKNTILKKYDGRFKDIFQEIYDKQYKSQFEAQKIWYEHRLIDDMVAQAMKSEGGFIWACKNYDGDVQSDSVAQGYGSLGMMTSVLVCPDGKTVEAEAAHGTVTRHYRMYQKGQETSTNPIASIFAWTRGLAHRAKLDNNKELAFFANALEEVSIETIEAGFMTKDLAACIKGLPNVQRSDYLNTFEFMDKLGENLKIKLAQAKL

pIC50 (IDH1 R132H) | pIC50 (HT1080 cells) | pIC50 (U87MG cells) | Structure (SMILES)
6.00 to 7.00 | < 5.30 | – | CCS(=O)(=O)NCC(=O)N(c1cccc(F)c1)C(C(=O)NC1CCCCC1)c1ccccc1C (stereo not drawn) [Compound 367]
≥ 7.00 | ≥ 6.60 | ≥ 6.60 | COC(=O)NCC(=O)N(c1cccc(F)c1)C(C(=O)NC1CCCCC1)c1ccccc1C (stereo not drawn) [Compound 334]
6.00 to 7.00 | 6.00 to 6.60 | 5.30 to 6.00 | Cc1ccccc1C(C(=O)NC1CCCCC1)N(C(=O)COCc1ccncc1)c1cccc(F)c1 (stereo not drawn) [Compound 229]
6.00 to 7.00 | 5.30 to 6.00 | ≥ 6.60 | Cc1ccccc1C(C(=O)NC1CCCCC1)N(C(=O)Cn1ccnc1C)c1cccc(N2CCOCC2)c1 (stereo not drawn) [Compound 231]
6.00 to 7.00 | 5.30 to 6.00 | 5.30 to 6.00 | COC(=O)NCCC(=O)N(c1cccc(F)c1)C(C(=O)NC1CCCCC1)c1ccccc1C (stereo not drawn) [Compound 374]
6.00 to 7.00 | 5.30 to 6.00 | 5.30 to 6.00 | Cc1ccccc1C(C(=O)NC1CCCCC1)N(C(=O)C(=O)c1c[nH]c2ccncc12)c1cccc(F)c1 (stereo not drawn) [Compound 269]
≥ 7.00 | 6.00 to 6.60 | 6.00 to 6.60 | Cc1ccccc1C(C(=O)NC1CCCCC1)N(Cc1cccs1)C(=O)CNc1ccc(C#N)cc1 (stereo not drawn) [Compound 228]
6.00 to 7.00 | ≥ 6.60 | 5.30 to 6.00 | Cc1ccccc1C(C(=O)NC1CC2CC2C1)N(C(=O)CNc1ncccc1F)c1cccc(F)c1 (stereo not drawn) [Compound 333]
6.00 to 7.00 | 6.00 to 6.60 | 5.30 to 6.00 | Cc1ccccc1C(C(=O)NC1CCCCC1)N(C(=O)COCc1ccccc1F)c1cccc(F)c1 (stereo not drawn) [Compound 222]
6.00 to 7.00 | 6.00 to 6.60 | 5.30 to 6.00 | Cc1ccccc1C(C(=O)NC1CCCCC1)N(C(=O)CNCc1cscn1)c1cccc(F)c1 (stereo not drawn) [Compound 267]
6.00 to 7.00 | 6.00 to 6.60 | 6.00 to 6.60 | Cc1ccccc1C(C(=O)NC1CCCCC1)N(C(=O)Cc1ccc(OC(=O)N2CCOCC2)cc1)c1cccc(F)c1 (stereo not drawn) [Compound 264]
6.00 to 7.00 | < 5.30 | – | Cc1ccccc1C(C(=O)NC1CCCCC1)N(c1cccc(F)c1)S(=O)(=O)Cc1ccccc1 (stereo not drawn) [Compound 393]
6.00 to 7.00 | 5.30 to 6.00 | ≥ 6.60 | Cc1ccccc1C(C(=O)NC1CCCCC1)N(C(=O)Cn1ccnc1C)c1cccc(-c2ccnn2C)c1 (stereo not drawn) [Compound 315]
6.00 to 7.00 | 6.00 to 6.60 | 6.00 to 6.60 | Cc1ccccc1C(C(=O)NC1CCCCC1)N(C(=O)CNc1ccc(S(C)(=O)=O)cc1)c1cccc(F)c1 (stereo not drawn) [Compound 258]
6.00 to 7.00 | 5.30 to 6.00 | 6.00 to 6.60 | Cc1ccccc1C(C(=O)NC1CCCCC1)N(C(=O)c1ccc(O)cc1)c1cccc(F)c1 (stereo not drawn) [Compound 216]
6.00 to 7.00 | 5.30 to 6.00 | ≥ 6.60 | Cc1ccccc1C(C(=O)NC1CCCCC1)N(C(=O)CNc1ncc[nH]1)c1cccc(F)c1 (stereo not drawn) [Compound 308]
6.00 to 7.00 | 6.00 to 6.60 | ≥ 6.60 | Cc1ccccc1C(C(=O)NC1CCCCC1)N(C(=O)Cn1ccnc1C)c1cccc(-c2ccccc2)c1 (stereo not drawn) [Compound 286]
6.00 to 7.00 | 6.00 to 6.60 | 5.30 to 6.00 | Cc1ccn(CC(=O)N(c2cccc(F)c2)C(C(=O)NC2CCCCC2)c2ccccc2C)n1 (stereo not drawn) [Compound 298]
6.00 to 7.00 | 6.00 to 6.60 | < 5.30 | Cc1ccccc1C(C(=O)NC1CCCCC1)N(C(=O)COCc1cnccn1)c1cccc(F)c1 (stereo not drawn) [Compound 282]
6.00 to 7.00 | 5.30 to 6.00 | 5.30 to 6.00 | Cc1ccccc1C(C(=O)NC1CCCCC1)N(C(=O)CN1CCN(C(=O)OC(C)C)CC1)c1cccc(F)c1 (stereo not drawn) [Compound 250]
6.00 to 7.00 | 6.00 to 6.60 | 6.00 to 6.60 | COC(=O)NCC(=O)N(c1ccccc1F)C(C(=O)NC1CCCCC1)c1ccccc1C (stereo not drawn) [Compound 357]
6.00 to 7.00 | < 5.30 | – | Cc1ccccc1C(C(=O)NC1CCCCC1)N(C(=O)CNc1ccc(-c2nnn[nH]2)cc1)c1cccc(F)c1 (stereo not drawn) [Compound 285]
6.00 to 7.00 | 5.30 to 6.00 | – | Cc1ccccc1C(C(=O)NC1CCCCC1)N(C(=O)CNc1ccccc1F)c1cccc(F)c1 (stereo not drawn) [Compound 242]
6.00 to 7.00 | – | < 5.30 | Cc1ccccc1C(C(=O)NC1CCCCC1)N(Cc1cccs1)C(=O)NCc1ccccc1 (stereo not drawn) [Compound 388]
6.00 to 7.00 | – | 5.30 to 6.00 | CCC(=O)N1CCCC[C@H]1C(=O)N(c1cccc(F)c1)[C@H](C(=O)NC1CCCCC1)c1ccccc1C [Compound 350]
6.00 to 7.00 | 5.30 to 6.00 | – | Cc1ccccc1C(C(=O)NC1CCCCC1)N(C(=O)COC1CCCCC1F)c1cccc(F)c1 (stereo not drawn) [Compound 235]
– | 6.00 to 6.60 | 6.00 to 6.60 | COC(=O)N(C)[C@@H](C)C(=O)N(c1cccc(F)c1)[C@H](C(=O)NC1CCCCC1)c1ccccc1C [Compound 366]
6.00 to 7.00 | 5.30 to 6.00 | – | Cc1ccccc1C(C(=O)NC1CCCCC1)N(C(=O)COCc1cccc(F)c1)c1cccc(F)c1 (stereo not drawn) [Compound 234]
6.00 to 7.00 | < 5.30 | – | Cc1ccccc1C(C(=O)NC1CC2CC2C1)N(C(=O)CNc1cccnc1F)c1cccc(F)c1 (stereo not drawn) [Compound 377]

The next lines start with the compound.

Structure (SMILES) | pIC50 (IDH1 R132H) | pIC50 (HT1080 cells) | pIC50 (U87MG cells)
Cc1ccccc1C(C(=O)NC1CCCCC1)N(Cc1cccs1)C(=O)CN1Cc2cccnc2C1 (stereo not drawn) [Compound 206] | 6.00 to 7.00 | 5.30 to 6.00 | 5.30 to 6.00
Cc1ccccc1C(C(=O)NCC1CCCCC1)N(C(=O)Cc1cccs1)c1cccc(F)c1 (stereo not drawn) [Compound 211] | 6.00 to 7.00 | 5.30 to 6.00 | 5.30 to 6.00
Cc1ccccc1C(C(=O)NC1CCCCC1)N(C(=O)CNCc1ccncc1)c1cccc(F)c1 (stereo not drawn) [Compound 171] | 6.00 to 7.00 | 6.00 to 6.60 | 5.30 to 6.00
Cc1ccccc1C(C(=O)NC1CCCOC1)N(C(=O)Cc1cccs1)c1cccc(F)c1 (stereo not drawn) [Compound 200] | 6.00 to 7.00 | 5.30 to 6.00 | 5.30 to 6.00
Cc1ccccc1C(C(=O)NC1CCCCC1)N(C(=O)Cn1ccnc1C)c1cccc(F)c1 (stereo not drawn) [Compound 165] | ≥ 7.00 | 6.00 to 6.60 | ≥ 6.60
Cc1ccccc1C(C(=O)NC1CCCCC1)N(C(=O)CNCc1cccnc1)c1cccc(F)c1 (stereo not drawn) [Compound 174] | 6.00 to 7.00 | – | 5.30 to 6.00
Cc1ccccc1C(C(=O)NC1CCCCC1)N(C(=O)Cn1cnc2ccccc21)c1cccc(F)c1 (stereo not drawn) [Compound 135] | ≥ 7.00 | – | 6.00 to 6.60
Cc1ccccc1C(C(=O)NC1CCCCC1)N(C(=O)CNCCc1ccccc1)c1cccc(F)c1 (stereo not drawn) [Compound 154] | 6.00 to 7.00 | – | 5.30 to 6.00
Cc1ccccc1C(C(=O)NC1CCCCC1)N(C(=O)Cc1cscn1)c1cccc(F)c1 (stereo not drawn) [Compound 158] | 6.00 to 7.00 | – | 6.00 to 6.60
Cc1ccccc1C(C(=O)NC1CCCCC1)N(C(=O)COc1ccc(F)cc1)c1cccc(F)c1 (stereo not drawn) [Compound 194] | 6.00 to 7.00 | 6.00 to 6.60 | –
Cc1ccccc1C(C(=O)NC1CCCCC1)N(C(=O)COCc1ccc(F)cc1)c1cccc(F)c1 (stereo not drawn) [Compound 214] | 6.00 to 7.00 | < 5.30 | –
Cc1ccccc1C(C(=O)NC1CCOCC1)N(C(=O)CN1CCCc2ccccc21)c1cccc(F)c1 (stereo not drawn) [Compound 179] | 6.00 to 7.00 | – | 5.30 to 6.00
Cc1ccccc1C(C(=O)NC1CCCCC1)N(Cc1cccs1)C(=O)CNc1ccc(F)cc1 (stereo not drawn) [Compound 207] | 6.00 to 7.00 | 5.30 to 6.00 | –
Cc1ccccc1C(C(=O)NC1CCCCC1)N(C(=O)CN1Cc2ccccc2C1)c1cccc(F)c1 (stereo not drawn) [Compound 188] | 6.00 to 7.00 | – | 6.00 to 6.60
Cc1ccccc1C(C(=O)NC1CCC1)N(C(=O)Cc1cccs1)c1cccc(F)c1 (stereo not drawn) [Compound 178] | 6.00 to 7.00 | – | 6.00 to 6.60
Cc1ccccc1C(C(=O)NC1CCCCC1)N(C(=O)CNC1CCOCC1)c1cccc(F)c1 (stereo not drawn) [Compound 181] | 6.00 to 7.00 | – | 5.30 to 6.00
Cc1ccccc1C(C(=O)NC1CCCCC1)N(C(=O)CNC1COC1)c1cccc(F)c1 (stereo not drawn) [Compound 170] | 6.00 to 7.00 | – | 5.30 to 6.00
Cc1ccccc1C(C(=O)NC1CCCCC1)N(C(=O)COc1ccccc1F)c1cccc(F)c1 (stereo not drawn) [Compound 196] | 6.00 to 7.00 | 6.00 to 6.60 | –
Cc1ccccc1C(C(=O)NC1CCCCC1)N(C(=O)COc1cccc(F)c1)c1cccc(F)c1 (stereo not drawn) [Compound 189] | 6.00 to 7.00 | – | < 5.30
Cc1ccccc1C(C(=O)NC1CCCCC1)N(C(=O)CNC1CCCCC1O)c1cccc(F)c1 (stereo not drawn) [Compound 180] | 6.00 to 7.00 | – | 5.30 to 6.00
Cc1ccccc1C(C(=O)NC1CCCCC1)N(Cc1cccs1)C(=O)CN(C)c1ccccc1 (stereo not drawn) [Compound 182] | 6.00 to 7.00 | – | 5.30 to 6.00
Cc1ccccc1C(C(=O)NC1CC2CCC1C2)N(C(=O)Cc1cccs1)c1cccc(F)c1 (stereo not drawn) [Compound 186] | ≥ 7.00 | – | 6.00 to 6.60
